Measured values from patent publication US20110178105A1, “CLINICAL BENEFITS OF EICOSAPENTAENOIC ACID IN HUMANS” (E.I. DU PONT DE NEMOURS AND COMPANY, priority 2010, published 2011).

Key:
[1] = Clinical study: inflammation markers, adhesion molecules, adiponectin (hsCRP, IL-6, sICAM, VCAM); assay type: in vivo, human; details: Fast, 6 weeks
Protocol: (§1) The following laboratory measurements were carried out on an automated analyzer (Roche Diagnostics, Indianapolis, Ind.) on samples obtained in the fasting state at the randomization visit, and the final visits using frozen aliquots of serum stored at −80 degrees Celsius: 1) total cholesterol; 2) triglycerides; 3) direct high density lipoprotein [“HDL”] cholesterol; 4) direct low density lipoprotein [“LDL”] cholesterol; 5) direct small dense LDL cholesterol; 6) apolipoprotein [“apo”] B; 7) apoA-I; 8) lipoprotein (a); 9) fibrinogen; 10) high sensitivity C reactive protein [“hs-CRP”]; 11) lipoprotein associated phospholipase A2 [“Lp-PLA2”]; and, 12) insulin as previously described. See, McNamara, J. R. and Schaefer, E. J., Clin. Chim. Acta, 166:1-8 (1987); Okada, M. et al., J. Lab. Clin. Med., 132:195-201 (1998); Hirano, T. et al., J. Lipid Res., 44:2193-2201 (2003); Ai, M. et al., Am. J. Cardiol., 101:315-318 (2008); Ingelsson, E. et al., JAMA, 298:776-785 (2007); Jenner, J. L. et al., Circulation, 87:1135-1141 (1993); Schaefer, E. J. et al., Am. J. Cardiol., 95:1025-1032 (2005); McNamara, J. R. et al., Atherosclerosis, 154:229-236 (2001).
Plasma apoB-48 was measured with an enzyme linked immunosorbent assay obtained from the Shibayagi Company (Gunma, Japan) (Kinoshita, M. et al., Clin. Chim. Acta, 351:115-120 (2005); Otokozawa, S. et al., Atherosclerosis, 205:197-201 (2009); Otokozawa, S. et al., Metabolism, 58(11): 1536-1542 (2009)). ICAM1 and VCAM1, interleukin-6 or IL-6, and adiponectin were all measured using commercially available enzyme linked immunoassays [“ELISA”] obtained from the R & D Corporation (Minneapolis, Minn.). All these assays have within and between run coefficients of variation of less than 10%.

[2] = Clinical study: fasting insulin and glucose; assay type: in vivo, human; details: 6 weeks
Protocol: Standard chemistry tests were carried at all visits (screening, enrollment, and final study visit after an overnight fast by Quest Laboratories, Cambridge, Mass.): blood urea nitrogen, creatinine, calculated glomerular filtration rate, sodium, potassium, chloride, carbon dioxide, calcium, total protein, albumin, globulin, total bilirubin, alkaline phosphatase, liver transaminases AST and ALT, and glucose. A complete blood count was also performed at all visits and included: hemoglobin, hematocrit, red blood cell count, platelet count, white blood cell count and a white blood cell count differential. Additional tests included: prothrombin time, and measurement of thyroid function including T3, T4 and T3 uptake. All subjects entering the study were required to have: liver function tests (i.e., transaminases) of less than 3 times the upper limits of normal; bilirubin and alkaline phosphatase values in the normal range; serum creatinine levels of less than 2.5 mg/dl; hemoglobin levels over 11 g/dl; a normal prothrombin time; a fasting blood glucose below 200 mg/dl; and, a blood pressure below 170/110 mmHg. All subjects who qualified for the study and met all the screening and laboratory entry criteria were scheduled for an enrollment visit within one month of screening.
At visit 2, subjects were again asked to fast for 12 hours, and information about subject characteristics including all vital signs, recent illness or hospitalization, medication and supplement use, and diet information was again obtained. […] At one week and three weeks after beginning the supplements, all study subjects were contacted by telephone and asked about any adverse effects and about their compliance, and the information on their calendars with regard to capsule use and fish intake. They were also asked about whether they had experienced any fishy aftertaste or odor, and if so, how frequent were these episodes, and how unpleasant were they? The entire process as listed above was repeated after study subjects were on the study capsules for 6 weeks at the time of the final visit. Compliance and adverse events were assessed by telephone at weeks 1 and 3 by telephone and at week 6 by questionnaire and capsule count. Over 42 days, subjects were expected to have consumed a total of 252 capsules. Compliance was calculated as a percentage of consumed capsule count/expected capsule count based on the number of days the subject was in the study. All subjects were asked to stay on their capsules until they come in for their final visit. Compliance in all participants who completed the study was based on capsule count was in excess of 85%, mean 96%.
as §1

[3] = cited from earlier work; for effects on C-reactive protein, interleukin-6, or tumor necrosis alpha: 4 grams per day; for reduction of triglyceride levels: overweight, hyperlipidemic men

CCC=CCC=CCC=CCC=CC/C=C\CCCC(=O)O [EPA, cis-5,8, 11, 14, 17-eicosapentaenoic acid]
Adiponectin, 6-Week Change (%) ([1]; EPA 600 mg (n = 27)): 11.3 ± 31.4% | Adiponectin, Final ([1]; EPA 600 mg (n = 27)): 9501.4 ± 5894.3 ng/mL | IL-6, 6-Week Change (%) ([1]; EPA 600 mg (n = 27)): +35.3 ± 126.1% | IL-6, Final ([1]; EPA 600 mg (n = 27)): 2.0 ± 1.8 pg/mL | VCAM, 6-Week Change (%) ([1]; EPA 600 mg (n = 27)): +2.2 ± 12.6% | VCAM, Final ([1]; EPA 600 mg (n = 27)): 722.8 ± 178.0 ng/mL | hsCRP, 6-Week Change (%) ([1]; EPA 600 mg (n = 27)): +115.6 ± 508.4% | hsCRP, Final ([1]; EPA 600 mg (n = 27)): 3.3 ± 4.9 mg/L | sICAM, 6-Week Change (%) ([1]; EPA 600 mg (n = 27)): +3.2 ± 19.0% | sICAM, Final ([1]; EPA 600 mg (n = 27)): 232.4 ± 62.7 ng/mL | Adiponectin, 6-Week Change (%) ([1]; EPA 1800 mg (n = 29)): 16.4 ± 82.6% | Adiponectin, Final ([1]; EPA 1800 mg (n = 29)): 17578.6 ± 45606.9 ng/mL | IL-6, 6-Week Change (%) ([1]; EPA 1800 mg (n = 29)): +3.1 ± 50.1% | IL-6, Final ([1]; EPA 1800 mg (n = 29)): 1.3 ± 0.7 pg/mL | VCAM, 6-Week Change (%) ([1]; EPA 1800 mg (n = 29)): +1.0 ± 13.5% | VCAM, Final ([1]; EPA 1800 mg (n = 29)): 607.5 ± 125.7 ng/mL | hsCRP, 6-Week Change (%) ([1]; EPA 1800 mg (n = 29)): +26.0 ± 113.0% | hsCRP, Final ([1]; EPA 1800 mg (n = 29)): 2.7 ± 4.7 mg/L | sICAM, 6-Week Change (%) ([1]; EPA 1800 mg (n = 29)): −2.6 ± 17.1% | sICAM, Final ([1]; EPA 1800 mg (n = 29)): 206.9 ± 50.5 ng/mL | Glucose, 6-Week Change (%) ([2]; EPA 600 mg (n = 27)): +1.3 ± 14.0% | Glucose, Final ([2]; EPA 600 mg (n = 27)): 92.1 ± 11.0 mg/dL | Insulin, 6-Week Change (%) ([2]; EPA 600 mg (n = 27)): +17.4 ± 70.6% | Insulin, 6-Week Change (%) ([2]; EPA 600 mg (n = 27), Fast): +17.4 ± 70.6% | Insulin, Final ([2]; EPA 600 mg (n = 27), Fast): 10.2 ± 7.9 µIU/mL | effects on C-reactive protein, interleukin-6, or tumor necrosis alpha [3]: no significant effects | reduction of triglyceride levels ([3]; 4 grams/day): 18%

CCC=CCC=CCC=CCC=CCC=CC/C=C\CCC(=O)O [DHA, cis-4,7, 10, 13, 16, 19-docosahexaenoic acid, reference compound]
Adiponectin, 6-Week Change (%) ([1]; DHA 600 mg (n = 28)): −6.7 ± 19.8% | Adiponectin, Final ([1]; DHA 600 mg (n = 28)): 11380.0 ± 14772.6 ng/mL | IL-6, 6-Week Change (%) ([1]; DHA 600 mg (n = 28)): +5.7 ± 50.3% | IL-6, Final ([1]; DHA 600 mg (n = 28)): 1.6 ± 0.9 pg/mL | VCAM, 6-Week Change (%) ([1]; DHA 600 mg (n = 28)): +0.2 ± 11.0% | VCAM, Final ([1]; DHA 600 mg (n = 28)): 673.0 ± 197.4 ng/mL | hsCRP, 6-Week Change (%) ([1]; DHA 600 mg (n = 28)): +27.1 ± 82.3% | hsCRP, Final ([1]; DHA 600 mg (n = 28)): 3.4 ± 4.5 mg/L | sICAM, 6-Week Change (%) ([1]; DHA 600 mg (n = 28)): +0.7 ± 18.0% | sICAM, Final ([1]; DHA 600 mg (n = 28)): 240.2 ± 114.1 ng/mL | Insulin, 6-Week Change (%) ([2]; DHA 600 mg (n = 28), Fast): +26.7 ± 79.8% | Insulin, Final ([2]; DHA 600 mg (n = 28), Fast): 8.4 ± 4.1 µIU/mL | effects on C-reactive protein, interleukin-6, or tumor necrosis alpha [3]: no significant effects | HDL2 cholesterol ([3]; 4 grams/day): significantly increased | forearm blood flow in response to acetylcholine infusion relative to placebo ([3]; 4 grams/day): significantly increased | reduction of triglyceride levels ([3]; 4 grams/day): 20%
